Experimental data published in patent US12178842B2, “PCSK9 antagonist compounds” (MERCK SHARP & DOHME LLC, priority 2019, dated 2024).
pKi: −log10 of the molar value.

How the values were obtained:
Assay type in all cases: binding
PCSK9 [1] = molecular target: T1, PCSK9 (Homo sapiens, UniProt Q8NBP7); experiment: PCSK9 Alexa FRET Standard TR-FRET assay; details: Ki calculated from IC50 and KD of AF cyclic peptide Reagent A; 0.5 nM PCSK9, 20 nM AF cyclic peptide; read-out: Alexa FRET Stdt TR-FRET
T1 construct: biotin (biotinylated); purchased
How it was run: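 Ki (nM) calculated from sigmoidal-fit IC50 and the KD of an AlexaFluor-labelled cyclic peptide (20 nM final) competing with compound for biotinylated PCSK9 (0.5 nM) bound to Eu-streptavidin (1.25 nM). Incubation at least 2 h, room temperature, HEPES pH 7.4 buffer with CaCl2; falling europium counts flag false positives.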

PCSK9 [2] = molecular target: T1, PCSK9; experiment: PCSK9 Alexa FRET Plus TR-FRET assay
How it was run: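 Compounds displace an AlexaFluor-labeled cyclic peptide (1920 nM solution, not final) from europium-tagged PCSK9; time-resolved FRET read after ≥2 h at room temperature. Ki derived from fitted IC50 and peptide KD, europium donor counts monitored to detect compound interference, results given in nanomolar.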

PCSK9 [3] = molecular target: T1, PCSK9; experiment: PCSK9 Alexa FRET Ultra TR-FRET assay
How it was run: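 TR-FRET read after ≥2 h at room temperature between europium-PCSK9 and an AlexaFluor cyclic peptide, stated as a 1920 nM solution. Sigmoidal nonlinear regression gives IC50, and Ki in nM follows from the peptide KD; europium counts are monitored for compound interference.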

[4] = Ki calculated from IC50 and KD of AF cyclic peptide Reagent B, 0.5 nM PCSK9, 960 nM AF cyclic peptide, read-out: Alexa FRET Plus TR-FRET
[5] = Ki Ultra, calculated from IC50 and KD of AF cyclic peptide, 0.5 nM PCSK9, 960 nM AF cyclic peptide, read-out: Alexa FRET Ultra TR-FRET

T1 sequence (Q8NBP7 153-692): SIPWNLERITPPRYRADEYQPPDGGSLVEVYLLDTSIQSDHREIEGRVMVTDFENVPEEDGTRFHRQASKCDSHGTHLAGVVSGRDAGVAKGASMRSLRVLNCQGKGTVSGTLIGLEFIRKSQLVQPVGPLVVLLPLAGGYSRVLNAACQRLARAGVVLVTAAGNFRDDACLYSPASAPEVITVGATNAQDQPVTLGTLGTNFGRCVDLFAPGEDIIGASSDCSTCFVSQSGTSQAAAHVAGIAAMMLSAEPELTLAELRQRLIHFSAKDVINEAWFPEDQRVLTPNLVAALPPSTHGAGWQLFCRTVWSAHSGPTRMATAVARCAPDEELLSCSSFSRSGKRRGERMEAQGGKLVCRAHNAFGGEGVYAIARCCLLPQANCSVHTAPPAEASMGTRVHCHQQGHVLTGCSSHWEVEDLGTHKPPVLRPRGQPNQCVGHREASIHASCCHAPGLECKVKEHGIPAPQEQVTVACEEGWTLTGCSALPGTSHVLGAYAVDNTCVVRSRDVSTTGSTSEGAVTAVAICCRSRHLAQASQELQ

pKi (PCSK9 [2]; [4])	pKi (PCSK9 [3]; [5])	Structure (SMILES)	pKi (PCSK9 [1])	pKi (PCSK9 [2])	pKi (PCSK9 [3])
		COc1ccc(C[C@@H]2NC(=O)[C@H]([C@@H](C)O)NC(=O)[C@@H]3[C@@H]4CCN3C(=O)[C@@H]3Cc5cn(c6ccc(F)cc56)CCCCCCN(Cc5ccc(cc5)CCNC(=O)[C@]5(C)CCCN5C2=O)C(=O)CCC(=O)N[C@@H](C)C(=O)N[C@H](CNC(=O)CCCCC[N+](C)(C)CCNC(=O)COCCOCCNC(=O)CCCCCCCCCCCCCCCCC(=O)O)C(=O)N[C@@H](Cc2cccc(c2)CNC(=O)CO4)C(=O)N3)cc1 [Example 1]	> 8.90	> 11.22	11.15
		COc1ccc(C[C@@H]2NC(=O)[C@H]([C@@H](C)O)NC(=O)[C@@H]3[C@@H]4CCN3C(=O)[C@@H]3Cc5cn(c6ccc(F)cc56)CCCCCCN(Cc5ccc(cc5)CCNC(=O)[C@]5(C)CCCN5C2=O)C(=O)CCC(=O)N[C@@H](C)C(=O)N[C@H](CNC(=O)CCCCC[N+](C)(C)CCNC(=O)COCCOCCNC(=O)COCCOCCNC(=O)CC[C@H](NC(=O)CCCCCCCCCCCCCCCCC(=O)O)C(=O)O)C(=O)N[C@@H](Cc2cccc(c2)CNC(=O)CO4)C(=O)N3)cc1 [Example 2]	> 8.90	10.85	11.22
		COc1ccc(C[C@@H]2NC(=O)[C@H]([C@@H](C)O)NC(=O)[C@@H]3[C@@H]4CCN3C(=O)[C@@H]3Cc5cn(c6ccc(F)cc56)CCCCCCN(Cc5ccc(cc5)CCNC(=O)[C@]5(C)CCCN5C2=O)C(=O)CCC(=O)N[C@@H](C)C(=O)N[C@H](CNC(=O)CCCCC[N+](C)(C)CCNC(=O)COCCOCCNC(=O)COCCOCCNC(=O)CC[C@H](NC(=O)CCCCCCCCCCCCCCC(=O)O)C(=O)O)C(=O)N[C@@H](Cc2cccc(c2)CNC(=O)CO4)C(=O)N3)cc1 [Example 3]	> 8.90	> 11.22	11.30
		COc1ccc(C[C@@H]2NC(=O)[C@H]([C@@H](C)O)NC(=O)[C@@H]3[C@@H]4CCN3C(=O)[C@@H]3Cc5cn(c6ccc(F)cc56)CCCCCCN(Cc5ccc(cc5)CCNC(=O)[C@]5(C)CCCN5C2=O)C(=O)CCC(=O)N[C@@H](C)C(=O)N[C@H](CNC(=O)CCOCCOCC[N+](C)(C)CCNC(=O)COCCOCCNC(=O)COCCOCCNC(=O)CC[C@H](NC(=O)CCCCCCCCCCCCCCC(=O)O)C(=O)O)C(=O)N[C@@H](Cc2cccc(c2)CNC(=O)CO4)C(=O)N3)cc1 [Example 4]	> 8.90	> 11.22	11.52
> 11.22	11.40	COc1ccc(C[C@@H]2NC(=O)[C@H]([C@@H](C)O)NC(=O)[C@@H]3[C@@H]4CCN3C(=O)[C@@H]3Cc5cn(c6ccc(F)cc56)CCCCCCN(Cc5ccc(cc5)CCNC(=O)[C@]5(C)CCCN5C2=O)C(=O)CCC(=O)N[C@@H](C)C(=O)N[C@H](CNC(=O)COCCOCCNC(=O)COCCOCCNC(=O)CCCCC[N+](C)(C)CCNC(=O)CC[C@H](NC(=O)CCCCCCCCCCCCCCCCC(=O)O)C(=O)O)C(=O)N[C@@H](Cc2cccc(c2)CNC(=O)CO4)C(=O)N3)cc1 [compound 30]	> 8.90		
11.05	10.96	COc1ccc(C[C@@H]2NC(=O)[C@H]([C@@H](C)O)NC(=O)[C@@H]3[C@@H]4CCN3C(=O)[C@@H]3Cc5cn(c6ccc(F)cc56)CCCCCCN(Cc5ccc(cc5)CCNC(=O)[C@]5(C)CCCN5C2=O)C(=O)CCC(=O)N[C@@H](C)C(=O)N[C@H](CNC(=O)COCCOCCNC(=O)CCOCCOCC[N+](C)(C)CCNC(=O)COCCOCCNC(=O)COCCOCCNC(=O)CC[C@H](NC(=O)CCCCCCCCCCCCCCCCC(=O)O)C(=O)O)C(=O)N[C@@H](Cc2cccc(c2)CNC(=O)CO4)C(=O)N3)cc1 [compound 32]	> 8.90		
10.85	10.80	COc1ccc(C[C@@H]2NC(=O)[C@H]([C@@H](C)O)NC(=O)[C@@H]3[C@@H]4CCN3C(=O)[C@@H]3Cc5cn(c6ccc(F)cc56)CCCCCCN(Cc5ccc(cc5)CCNC(=O)[C@]5(C)CCCN5C2=O)C(=O)CCC(=O)N[C@@H](C)C(=O)N[C@H](CNC(=O)CC[C@H](NC(=O)CCCCC[N+](C)(C)CCNC(=O)COCCOCCNC(=O)COCCOCCNC(=O)CC[C@H](NC(=O)CCCCCCCCCCCCCCCCC(=O)O)C(=O)O)C(=O)O)C(=O)N[C@@H](Cc2cccc(c2)CNC(=O)CO4)C(=O)N3)cc1 [compound 33]	> 8.90		
